Laboratory results: patent publication US20250116604A1, “FL[…] OF PERF[…] LIVING CULTURES OF A NEWLY ISOLATED P[…]. BACTERIUM” (The Government of the United States of America, as …, priority 2023, published 2025)

Test system: Pseudomonas sp. CBR-F
Test: Fluorescent response of living Pseudomonas sp. CBR-F cultures to perfluoroalkyl substances
Type: cell-based
Details: excitation 425 nm; for fluorescent response of Pseudomonas sp. CBR-F: R2A medium, 96 well plate, 12-16 hours at 30° C.; for fluorescent response of Pseudomonas sp. CBR-F / form of the fluorescence response versus concentration: emission 475 nm; for form of the fluorescence response versus concentration: log of concentration plotted against the measured fluorescence; for limit of detection: ppb (micrograms/liter), fluorescence at 475 nm
Description: To perform an assay, CBR-F was inoculated into medium containing Reasoner's 2A medium (R2A) diluted from a 2× stock with the test sample in a 96 well plate. Internal standards using PFOA are run each time as a calibration curve. Following incubation for a number of hours (for example, 12-16 hours at 30° C.), fluorescence was measured at 475 nm with an excitation of 425 nm after the cultures have grown with shaking at 150 rpm for 15 hours using a 96 well plate reader with fluorescent capabilities. The log of PFOA concentration is plotted against the measured fluorescence, and a linear trend is calculated. The trendline formula is used to calculate PFOA/PFOS concentrations in the sample.

| SMILES | fluorescent response of Pseudomonas sp. CBR-F | form of the fluorescence response versus concentration | limit of detection [ppb] |
| --- | --- | --- | --- |
| O=S(=O)(O)C(F)(F)C(F)(F)C(F)(F)C(F)(F)C(F)(F)C(F)(F)C(F)(F)C(F)(F)F [PFOS, perfluorooctanesulfonic acid] | produces fluorescence | linear relative to the log | 50 |
| O=C(O)C(F)(F)C(F)(F)C(F)(F)C(F)(F)C(F)(F)C(F)(F)C(F)(F)F [PFOA, perfluorooctanoic acid] | produces fluorescence | linear relative to the log | 50 |
